This passage reports inhibition and Ki results from ChEMBL document CHEMBL4507295 (2021).

By inhibition is commonly meant the change of the read-out against control, counted positive when it falls. Usually Ki stands for a dissociation constant, usually derived from enzyme kinetics or from competition with a known ligand.

Each structure is given as a SMILES string.

Test [1] deals with 5-hydroxytryptamine receptor 1E (Homo sapiens) (UniProt P28566). The settings on record: Compound concentration 10.0 uM.
The target of test [2] is 5-hydroxytryptamine receptor 7 (Homo sapiens, UniProt P34969). In words: GPCRScan assay: inhibition of 5-HT7A. Details: radioligand conc. used [nm] 5.0 – 6.0, parental cells Stable HEK.
For test [3], the species on record is Rattus norvegicus. The test is described as follows: Testosterone Eurofins-Panlabs radioligand binding assay. Also on record: ligand concentration 1.5 nM. To be noted: Compound concentration 10.0 uM.
The target of test [4] is Glutamate receptor ionotropic, kainate (Rattus norvegicus) (UniProt P22756+Q01812+P42260+P42264+Q63273). In words: Inhibition of Glutamate, Kainate at 10 µM in the Eurofins-Panlabs radioligand binding assay (Eurofins_assay_232700). The settings on record: Compound concentration 10.0 uM.
For test [5], the target named is Neuropeptide Y receptor type 1 (Homo sapiens) (UniProt P25929). The test is described as follows: Inhibition of Neuropeptide Y Y1 at 10 µM in the Eurofins-Panlabs radioligand binding assay (Eurofins_assay_257010). The settings on record: Compound concentration 10.0 uM.
For test [6], the species on record is Homo sapiens. The test is described as follows: Inhibition of Phosphodiesterase PDE4 at compound concentration of 10.0 uM in the Eurofins-Panlabs enzyme assay (Eurofins_assay_154000). The test is classed as protein assay. Also on record: substrate with concentration 1.01 uM [3 H]cAMP + cAMP, incubation time 20 min, incubation temperature 25 C. To be noted: Compound concentration […].

Test [7] is filed under the species Rattus norvegicus. The test is described as follows: Inhibition of Glycine, Strychnine-Sensitive at 10 µM in the Eurofins-Panlabs radioligand binding assay (Eurofins_assay_239000). The settings on record: Compound concentration 10.0 uM.
In test [8] the target is 5-hydroxytryptamine receptor 6 (Homo sapiens) (UniProt P50406). The test is described as follows: Inhibition of Serotonin (5-Hydroxytryptamine) 5-HT6 at 10 µM in the Eurofins-Panlabs radioligand binding assay (Eurofins_assay_272200). To be noted: Compound concentration 10.0 uM.
For test [9], the target named is Substance-K receptor (Homo sapiens) (UniProt P21452). The test is described as follows: Inhibition of Tachykinin NK2 at 10 µM in the Eurofins-Panlabs radioligand binding assay (Eurofins_assay_255600). Details: ligand concentration 0.5 nM. The settings on record: Compound concentration 10.0 uM.
The target of test [10] is Vasoactive intestinal polypeptide receptor 1 (Homo sapiens) (UniProt P32241). The test is described as follows: Inhibition of Vasoactive Intestinal Peptide VIP1 at 10 µM in the Eurofins-Panlabs radioligand binding assay (Eurofins_assay_287010). To be noted: Compound concentration 10.0 uM.
Test [11] addresses Substance-P receptor (Homo sapiens) (UniProt P25103). In words: Tachykinin NK1 Eurofins-Panlabs radioligand binding assay. To be noted: Compound concentration 10.0 uM.
Another test has as its target Caspase-8 (Homo sapiens) (UniProt Q14790). The test is described as follows: Peptidase, CASP8 (Caspase 8) Eurofins-Panlabs enzyme assay. The settings on record: Compound concentration 10.0 uM.
Test [12] has as its target Prostaglandin E2 receptor EP3 subtype (Homo sapiens) (UniProt P43115). The test is described as follows: Prostanoid EP3 Eurofins-Panlabs radioligand binding assay. Also on record: ligand concentration 0.5 nM, non-specific ligand with concentration 10 µM Prostaglandin EŽ2 (PGE2), incubation time 60 min, incubation temperature 25 °C. To be noted: Compound concentration 10.0 uM.

Test [13] concerns the target Thyrotropin-releasing hormone receptor (Homo sapiens) (UniProt P34981). The test is described as follows: Thyrotropin Releasing Hormone (TRH) Eurofins-Panlabs radioligand binding assay. To be noted: Rattus norvegicus; Compound concentration 10.0 uM. Also on record: ligand concentration 3 nM.
Test [14] concerns the target Tyrosine-protein phosphatase non-receptor type 1 (Homo sapiens) (UniProt P18031). The test is described as follows: Protein Tyrosine Phosphatase, PTPN1 (PTP1B) Eurofins-Panlabs enzyme assay. To be noted: Compound concentration 10.0 uM. Also on record: substrate with concentration.
The species entered for test [15] is Homo sapiens. In words: Calcitonin Gene-Related Peptide CGRP1 Eurofins-Panlabs radioligand binding assay. The test is classed as protein-complex assay. The settings on record: Compound concentration 10.0 uM.
The target in test [16] is Galanin receptor type 2 (Homo sapiens) (UniProt O43603). The test is described as follows: Galanin GAL2 Eurofins-Panlabs radioligand binding assay. The settings on record: Compound concentration 10.0 uM. Details: ligand concentration 0.02 nM.
Test [17] addresses Inositol 1,4,5-trisphosphate-gated calcium channel ITPR1 (Homo sapiens) (UniProt Q14643). In words: Inositol Trisphosphate IP3 Eurofins-Panlabs radioligand binding assay. The settings on record: Rattus norvegicus; Compound concentration 10.0 uM.
The target in test [18] is Melatonin receptor (Gallus gallus) (UniProt P49288+P51050+P49285). In words: Melatonin MT, Non-Selective Eurofins-Panlabs radioligand binding assay. To be noted: Compound concentration 10.0 uM. The test is classed as protein assay.
The target of test [19] is Neuromedin-K receptor (Homo sapiens) (UniProt P29371). In words: Tachykinin NK3 Eurofins-Panlabs radioligand binding assay. To be noted: Compound concentration 10.0 uM. Details: ligand concentration 0.8 nM.
The target in test [20] is Beta-1 adrenergic receptor (Homo sapiens) (UniProt P08588). The settings on record: Compound concentration 10.0 uM.
Test [21] addresses Beta-2 adrenergic receptor (Homo sapiens) (UniProt P07550). The settings on record: Compound concentration 10.0 uM.
For test [22], the target named is Estrogen receptor (Homo sapiens) (UniProt P03372). To be noted: Compound concentration 10.0 uM.
Test [23] has as its target Glutamate NMDA receptor (Rattus norvegicus) (UniProt P35439+Q00959+Q00960+Q00961+Q62645+Q8VHN2+Q9R1M7). The settings on record: Compound concentration 10.0 uM.
In test [24] the target is Histamine H1 receptor (Homo sapiens) (UniProt P35367). To be noted: Compound concentration 10.0 uM.
Test [25] deals with T1, 5-hydroxytryptamine receptor 1A (Homo sapiens) (UniProt P08908).
T1 sequence (whole entry): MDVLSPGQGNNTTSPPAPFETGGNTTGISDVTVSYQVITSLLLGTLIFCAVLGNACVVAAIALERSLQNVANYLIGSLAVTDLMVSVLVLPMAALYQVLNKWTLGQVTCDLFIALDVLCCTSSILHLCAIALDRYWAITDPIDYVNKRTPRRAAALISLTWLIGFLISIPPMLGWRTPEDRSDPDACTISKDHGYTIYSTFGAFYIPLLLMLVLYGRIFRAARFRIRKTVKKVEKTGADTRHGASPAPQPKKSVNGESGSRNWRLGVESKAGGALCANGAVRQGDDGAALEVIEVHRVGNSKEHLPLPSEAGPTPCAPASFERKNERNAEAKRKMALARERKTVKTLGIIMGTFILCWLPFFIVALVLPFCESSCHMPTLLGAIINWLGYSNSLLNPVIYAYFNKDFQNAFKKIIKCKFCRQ
The settings on record: Compound concentration 10.0 uM.

Test [26] deals with 5-hydroxytryptamine receptor 2B (Homo sapiens) (UniProt P41595). To be noted: Compound concentration 10.0 uM.
Test [27] is filed under the species Rattus norvegicus. The settings on record: Compound concentration 10.0 uM.
Test [28] deals with T2, Alpha-2B adrenergic receptor (Homo sapiens) (UniProt P18089).
T2 sequence (whole entry): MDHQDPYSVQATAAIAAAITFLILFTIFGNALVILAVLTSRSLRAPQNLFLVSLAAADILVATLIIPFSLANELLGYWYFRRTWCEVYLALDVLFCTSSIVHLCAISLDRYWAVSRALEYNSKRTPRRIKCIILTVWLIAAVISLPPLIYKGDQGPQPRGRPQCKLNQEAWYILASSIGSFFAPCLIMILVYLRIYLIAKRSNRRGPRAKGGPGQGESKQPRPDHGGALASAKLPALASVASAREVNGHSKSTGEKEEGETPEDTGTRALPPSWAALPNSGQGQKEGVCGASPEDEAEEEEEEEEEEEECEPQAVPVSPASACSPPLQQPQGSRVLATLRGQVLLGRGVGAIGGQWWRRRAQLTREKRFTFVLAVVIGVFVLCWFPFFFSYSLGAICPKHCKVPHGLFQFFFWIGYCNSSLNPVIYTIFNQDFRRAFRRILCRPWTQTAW
The settings on record: Compound concentration 10.0 uM.

In test [29] the target is Insulin receptor (Homo sapiens) (UniProt P06213). The settings on record: Rattus norvegicus; Compound concentration 10.0 uM.
For test [30], the target named is Synaptic vesicular amine transporter (Homo sapiens) (UniProt Q05940). The settings on record: Oryctolagus cuniculus; Compound concentration 10.0 uM.
Sequence of Synaptic vesicular amine transporter (Homo sapiens) (Q05940 whole entry): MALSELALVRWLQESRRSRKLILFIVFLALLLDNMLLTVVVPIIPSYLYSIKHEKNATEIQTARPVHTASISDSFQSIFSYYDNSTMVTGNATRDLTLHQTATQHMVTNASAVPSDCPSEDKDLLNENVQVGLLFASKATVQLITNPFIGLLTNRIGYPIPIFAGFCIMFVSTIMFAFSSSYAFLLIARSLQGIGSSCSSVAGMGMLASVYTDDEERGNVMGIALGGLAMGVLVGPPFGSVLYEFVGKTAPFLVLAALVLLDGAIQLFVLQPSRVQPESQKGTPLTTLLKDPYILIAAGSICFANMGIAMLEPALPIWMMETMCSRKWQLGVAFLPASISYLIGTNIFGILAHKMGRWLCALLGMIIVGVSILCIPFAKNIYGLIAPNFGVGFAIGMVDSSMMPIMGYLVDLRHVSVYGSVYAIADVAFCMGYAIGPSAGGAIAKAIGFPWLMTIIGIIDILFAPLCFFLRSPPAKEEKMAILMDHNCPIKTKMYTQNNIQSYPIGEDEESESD

Sequence of Tyrosine-protein phosphatase non-receptor type 1 (Homo sapiens) (P18031 whole entry): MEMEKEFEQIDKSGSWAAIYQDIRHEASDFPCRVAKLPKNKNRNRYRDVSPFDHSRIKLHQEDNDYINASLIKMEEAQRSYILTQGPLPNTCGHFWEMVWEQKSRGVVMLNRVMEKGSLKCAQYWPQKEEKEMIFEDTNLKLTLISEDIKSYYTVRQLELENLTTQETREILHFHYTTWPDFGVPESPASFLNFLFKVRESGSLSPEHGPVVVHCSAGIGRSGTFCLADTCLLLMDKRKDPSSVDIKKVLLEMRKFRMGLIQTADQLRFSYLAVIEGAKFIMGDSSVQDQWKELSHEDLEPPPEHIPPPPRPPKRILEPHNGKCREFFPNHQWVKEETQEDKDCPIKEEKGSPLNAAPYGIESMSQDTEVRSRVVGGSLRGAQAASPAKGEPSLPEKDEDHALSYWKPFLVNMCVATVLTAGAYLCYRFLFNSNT
Sequence of Thyrotropin-releasing hormone receptor (Homo sapiens) (P34981 whole entry): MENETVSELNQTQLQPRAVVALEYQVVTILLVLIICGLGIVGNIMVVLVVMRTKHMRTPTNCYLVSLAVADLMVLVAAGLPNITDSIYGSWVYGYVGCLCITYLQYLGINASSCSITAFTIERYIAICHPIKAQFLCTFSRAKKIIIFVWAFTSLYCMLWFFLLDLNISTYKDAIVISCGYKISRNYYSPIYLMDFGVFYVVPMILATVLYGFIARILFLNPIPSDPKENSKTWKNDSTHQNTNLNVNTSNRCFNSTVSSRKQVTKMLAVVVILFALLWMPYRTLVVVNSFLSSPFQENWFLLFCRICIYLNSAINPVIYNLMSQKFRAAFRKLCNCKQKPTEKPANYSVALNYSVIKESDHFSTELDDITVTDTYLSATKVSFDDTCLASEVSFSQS
Sequence of Estrogen receptor (Homo sapiens) (P03372 whole entry): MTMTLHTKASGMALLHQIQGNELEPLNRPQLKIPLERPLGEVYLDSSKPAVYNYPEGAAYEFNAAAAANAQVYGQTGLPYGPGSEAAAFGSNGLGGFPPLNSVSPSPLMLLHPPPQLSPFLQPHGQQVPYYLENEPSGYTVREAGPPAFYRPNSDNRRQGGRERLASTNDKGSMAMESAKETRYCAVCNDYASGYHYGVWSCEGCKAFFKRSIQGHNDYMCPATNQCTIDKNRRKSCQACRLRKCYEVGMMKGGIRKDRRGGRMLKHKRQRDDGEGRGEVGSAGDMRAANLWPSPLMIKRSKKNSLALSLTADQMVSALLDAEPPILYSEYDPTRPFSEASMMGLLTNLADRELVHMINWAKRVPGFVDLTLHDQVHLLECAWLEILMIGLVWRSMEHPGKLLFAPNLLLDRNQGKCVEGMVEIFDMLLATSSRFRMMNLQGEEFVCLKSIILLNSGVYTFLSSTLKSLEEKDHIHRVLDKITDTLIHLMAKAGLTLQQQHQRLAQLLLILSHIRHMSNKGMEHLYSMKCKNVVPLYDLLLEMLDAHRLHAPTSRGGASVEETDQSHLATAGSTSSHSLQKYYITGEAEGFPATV
Sequence of Insulin receptor (Homo sapiens) (P06213 28-758 limits assumed): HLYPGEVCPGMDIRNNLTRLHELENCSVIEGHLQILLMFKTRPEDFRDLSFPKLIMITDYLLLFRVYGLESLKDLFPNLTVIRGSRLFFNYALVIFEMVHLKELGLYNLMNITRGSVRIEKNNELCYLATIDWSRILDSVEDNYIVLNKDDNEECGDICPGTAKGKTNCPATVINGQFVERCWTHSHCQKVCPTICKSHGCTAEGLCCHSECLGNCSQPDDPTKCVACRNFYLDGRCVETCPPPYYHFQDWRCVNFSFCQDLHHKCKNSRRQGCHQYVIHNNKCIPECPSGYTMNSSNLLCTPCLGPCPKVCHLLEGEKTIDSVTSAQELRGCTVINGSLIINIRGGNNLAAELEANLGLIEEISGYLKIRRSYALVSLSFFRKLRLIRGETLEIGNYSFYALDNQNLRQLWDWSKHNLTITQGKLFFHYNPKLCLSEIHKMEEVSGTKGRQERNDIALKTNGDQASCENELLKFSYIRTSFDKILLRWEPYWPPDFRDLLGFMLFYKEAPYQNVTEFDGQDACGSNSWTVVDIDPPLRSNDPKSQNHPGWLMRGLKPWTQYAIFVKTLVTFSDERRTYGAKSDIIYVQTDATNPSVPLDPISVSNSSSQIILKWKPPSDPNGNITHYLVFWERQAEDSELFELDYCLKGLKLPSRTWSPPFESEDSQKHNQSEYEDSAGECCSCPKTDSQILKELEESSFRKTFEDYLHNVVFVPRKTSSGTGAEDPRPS
Sequence of Insulin receptor (Homo sapiens) (P06213 763-1382 limits assumed): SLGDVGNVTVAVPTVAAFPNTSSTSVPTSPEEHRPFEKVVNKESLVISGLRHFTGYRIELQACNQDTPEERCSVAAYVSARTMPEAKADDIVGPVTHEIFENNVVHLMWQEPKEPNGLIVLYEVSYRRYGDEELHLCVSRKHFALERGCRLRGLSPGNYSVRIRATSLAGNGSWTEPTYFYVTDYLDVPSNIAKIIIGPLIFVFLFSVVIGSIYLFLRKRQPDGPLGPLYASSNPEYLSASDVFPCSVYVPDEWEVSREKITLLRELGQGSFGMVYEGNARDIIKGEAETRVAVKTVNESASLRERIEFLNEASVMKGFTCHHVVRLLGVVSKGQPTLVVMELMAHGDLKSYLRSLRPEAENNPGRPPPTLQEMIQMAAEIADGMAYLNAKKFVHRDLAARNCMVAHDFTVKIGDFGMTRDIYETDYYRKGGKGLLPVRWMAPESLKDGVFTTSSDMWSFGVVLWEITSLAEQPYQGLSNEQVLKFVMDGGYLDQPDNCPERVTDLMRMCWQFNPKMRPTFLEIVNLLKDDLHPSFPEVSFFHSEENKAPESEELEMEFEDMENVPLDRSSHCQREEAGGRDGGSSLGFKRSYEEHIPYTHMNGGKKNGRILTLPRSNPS
Sequence of Beta-2 adrenergic receptor (Homo sapiens) (P07550 whole entry, looked up): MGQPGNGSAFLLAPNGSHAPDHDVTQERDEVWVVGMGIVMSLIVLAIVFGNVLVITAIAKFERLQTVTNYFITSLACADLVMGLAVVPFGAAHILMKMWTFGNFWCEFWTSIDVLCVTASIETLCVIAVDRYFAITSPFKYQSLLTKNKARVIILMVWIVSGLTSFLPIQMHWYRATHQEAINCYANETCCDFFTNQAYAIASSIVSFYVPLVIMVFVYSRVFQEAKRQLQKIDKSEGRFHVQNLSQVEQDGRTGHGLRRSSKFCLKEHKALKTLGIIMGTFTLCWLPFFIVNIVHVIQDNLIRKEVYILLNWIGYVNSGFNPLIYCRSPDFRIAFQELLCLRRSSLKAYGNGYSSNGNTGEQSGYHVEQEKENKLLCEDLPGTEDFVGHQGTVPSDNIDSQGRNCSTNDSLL
Sequence of Beta-1 adrenergic receptor (Homo sapiens) (P08588 whole entry, looked up): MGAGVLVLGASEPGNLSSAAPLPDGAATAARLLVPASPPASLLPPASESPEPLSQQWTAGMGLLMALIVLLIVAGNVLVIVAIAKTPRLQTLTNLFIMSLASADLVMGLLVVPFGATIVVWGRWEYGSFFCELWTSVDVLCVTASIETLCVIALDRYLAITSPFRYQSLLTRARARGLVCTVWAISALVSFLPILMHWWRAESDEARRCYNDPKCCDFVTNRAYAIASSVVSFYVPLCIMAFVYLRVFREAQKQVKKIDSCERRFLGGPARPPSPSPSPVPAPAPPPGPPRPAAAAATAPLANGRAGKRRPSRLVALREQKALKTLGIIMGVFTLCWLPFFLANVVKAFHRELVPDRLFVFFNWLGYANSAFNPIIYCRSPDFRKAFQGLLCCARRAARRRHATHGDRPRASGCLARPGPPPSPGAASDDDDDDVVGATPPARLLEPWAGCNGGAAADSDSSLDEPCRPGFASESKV
Sequence of 5-hydroxytryptamine receptor 2B (Homo sapiens) (P41595 whole entry): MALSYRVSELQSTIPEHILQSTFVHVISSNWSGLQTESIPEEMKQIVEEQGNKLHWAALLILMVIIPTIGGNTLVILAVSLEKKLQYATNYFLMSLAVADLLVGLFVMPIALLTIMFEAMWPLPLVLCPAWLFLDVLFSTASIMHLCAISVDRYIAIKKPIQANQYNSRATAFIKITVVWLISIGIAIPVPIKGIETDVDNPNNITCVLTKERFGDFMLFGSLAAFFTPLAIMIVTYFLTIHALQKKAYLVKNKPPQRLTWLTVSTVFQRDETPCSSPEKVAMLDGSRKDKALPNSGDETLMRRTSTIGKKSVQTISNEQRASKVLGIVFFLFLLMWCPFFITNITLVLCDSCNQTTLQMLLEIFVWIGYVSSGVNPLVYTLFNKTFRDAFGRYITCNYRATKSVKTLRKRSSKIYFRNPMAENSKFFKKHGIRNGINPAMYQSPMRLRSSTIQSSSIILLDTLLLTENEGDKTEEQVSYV
Sequence of Caspase-8 (Homo sapiens) (Q14790 217-374 limits assumed): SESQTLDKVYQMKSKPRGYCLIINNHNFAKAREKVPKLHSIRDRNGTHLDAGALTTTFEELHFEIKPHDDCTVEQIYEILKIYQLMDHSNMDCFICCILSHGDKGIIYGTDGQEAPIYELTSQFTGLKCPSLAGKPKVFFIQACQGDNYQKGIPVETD
Sequence of Caspase-8 (Homo sapiens) (Q14790 385-479 limits assumed): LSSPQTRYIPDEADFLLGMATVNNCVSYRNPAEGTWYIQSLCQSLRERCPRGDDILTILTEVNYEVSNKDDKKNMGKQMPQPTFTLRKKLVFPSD

For the compound `N#CC1(c2ccccn2)CCN(Cc2cc(C(=O)N3CCCC3)c(=O)n3ccccc23)CC1`, the inhibition in test [1] is -3.26%.
Consider `N#CC1(c2ccccn2)CCN(Cc2cc(C(=O)O)c(=O)n3ccccc23)CC1` [MSD-M1PAM], for which the Ki in test [2] came to 10 µM. Moreover, the inhibition was -3% in the test filed under Rattus norvegicus [3]; 7% in test [4]; -1% in test [5]; 8% in the test listed under Homo sapiens [6]; 33% in the test filed under Rattus norvegicus [7]; 11% in [8]. The inhibition in test [9] is 9%; in test [10], 14%; in [11], 0%; on Caspase-8 (Homo sapiens), 9%; in test [12] it was 3%; in [13], 13%. In addition, the inhibition in [14] is 34%; in the test listed under Homo sapiens [15] it was -6%; in test [16], 4%; in [17], -3%; in [18] it was -6%; in [19], 7%. Besides, the inhibition in test [20] is 2%; in test [21], -4%; in test [22] it was -1%; in [23] it was 25%; in test [24] it was 5%; in [25] it was 2%. Besides, the inhibition in test [26] is -2%; in the test listed under Rattus norvegicus [27] it was -4%; in test [28] it was -8%; in [29] it was 3%; in test [30], 9%.
